Results published in publication PMC13128454, “Mutant p53 protein accumulation is selectively targetable by proximity-inducing drugs” (Nature Chemical Biology, 2025).
“And” between values parts separate entries of the source, which are not always exact repeats. Equal values may be shown once.

Columns and labels:
[1] = system: PLK1 targets (cyclin B1, phospho-PLK-binding motif) in parental 293T cells; experiment: western blot for PLK1 targets; type: cell-based; conditions: 8.5 h, double thymidine block
Description: (§1) Cells were split into a 10-cm dish at low confluency (20%) and grown overnight. Cells were synchronized with double thymidine block. Cells were treated with thymidine (2 mM) overnight and released into fresh medium for 8.5 h and then retreated with thymidine (2 mM) overnight. Cells were split into a six-well plate and released into medium containing compound for 8.5 h. Cells were pelleted and protein lysates were created using RIPA buffer containing Halt phosphatase and protease inhibitor (Thermo Fisher, 78440). Lysates were clarified by centrifugation (21,000g for 15 min) and the supernatant was denatured in 1× Lamelli buffer containing DTT by heating at 95 °C for 5 min. The resulting protein was loaded onto a Tris–acetate gel, transferred onto a PVDF membrane and treated with primary antibodies: cyclin B1 (D5C10, Cell Signaling Technologies, 12231T; 1:1,000) and phospho-PLK-binding motif (D73F6, Cell Signaling Technologies, 5243T; 1:1,000). The membrane was stained with IRDye 800CW goat anti-rabbit IgG secondary antibody (Licor Biosciences; 1:20,000) and imaged on an Odyssey DLx.

[2] = system: PLK1 targets (cyclin B1, phospho-PLK-binding motif) in Halo–p53-Y220C ΔTAD–mCherry 293T cells; experiment: western blot for PLK1 targets; type: cell-based; conditions: 8.5 h, double thymidine block
Description: as §1

[3] = system: p53 transcriptional targets in Huh7 cells (TP53^Y220C/Y220C); experiment: Huh7 RNA-seq and GSEA; type: cell-based; conditions: 4 μM, 24 h, versus DMSO
Description: Huh7 cells were passaged into six-well plates and treated with PMV6 (4 μM), p53-01 (4 μM) or DMSO for 24 h. Cells were washed once with cold PBS. Subsequently, TRIzol (Invitrogen) was added to cells and, following the manufacturer’s protocol, RNA was extracted. RNA concentration was monitored using a Qubit fluorometer (Thermo Fisher) and RNA integrity was analyzed using an Agilent Bioanalyzer. The NEBNext Ultra II RNA library prep kit (Illumina) was used to prepare an RNA-seq library. A NovaSeq 6000 machine (Illumina) was used for paired-end 150-bp RNA-seq. STAR/RSEM[68],[71] was used to align RNA-seq reads to the GENCODE v38 transcript ref.[72] and generate a count matrix. Raw counts were rounded and DESeq2 was used for downstream analysis. A preranked GSEA[74] was performed using the DESeq2 t statistic (versus DMSO-treated cells) as a rank metric using the Fischer p53 targets geneset.

[4] = system: MFE319 cells; experiment: CellTiter-Glo cell viability; type: cell-based; parameters: p5301_AUC_to_10uM / AUC_rezatapopt: scale not given here; viability, replicates (sheet 4G): unit not given here; conditions: for mean_norm (normalized viability): 4 day; for viability, replicates (sheet 4G): No PMV6
Description: (§2) Cells were plated in 384-well plates (typically 1,500 cells per well) with varying concentrations of compounds, with a total volume of 50 μl per well. CTG reagent was added (25 μl) to the solutions, mixed and read out using an EnVision 2105 multimode plate reader.

[5] = system: MCF7 cells; experiment: CellTiter-Glo cell viability; type: cell-based
Description: as §2

[6] = system: NUGC-3 cells; experiment: CellTiter-Glo cell viability; type: cell-based; conditions: NUGC3
Description: as §2

[7] = system: LNCaP cells; experiment: CellTiter-Glo cell viability; type: cell-based; conditions: for mean_norm (normalized viability): LNCAP, 4 day
Description: as §2

[8] = system: Huh7 cells; experiment: CellTiter-Glo cell viability; type: cell-based
Description: as §2

[9] = system: HepG2 cells; experiment: CellTiter-Glo cell viability; type: cell-based
Description: as §2

[10] = system: Halo–p53-Y220C ΔTAD–mCherry 293T cells; experiment: 3-week culture with compound, mCherry^− fraction by FACS; type: cell-based; conditions: 250 nM, 3 weeks
[11] = system: PLK1 and p53-Y220C localization in cotransfected 293T cells; experiment: colocalization assay, live-cell imaging; type: cell-based; conditions: nonmitotic cells
Description: The 293T cells were seeded in six-well plates and cotransfected with Halo–p53-Y220C ΔTAD–mCherry and mEGFP–PLK1–SmBiT (1:1). After 1 day, the cells were passaged into 96-well plates in FluoroBrite DMEM for microscopy. The cells were imaged with the Opera Phenix Plus high-content screening system (PerkinElmer) before compound treatment and as a time series following compound treatment.

[12] = system: cancer cell lines across DepMap; parameters: method as in DepMap; conditions: antiproliferative; GDSC1; ref DepMap; read-out: median IC50 across DepMap; cited from earlier work
[13] = Homo sapiens, 96 h, 4 day treatment

Question: What does the source list for `CC[C@@H]1C(=O)N(C)c2cnc(Nc3ccc(C(=O)NCCOCCOCCOCCOCCC(=O)N4CCC(Nc5cccc6c5cc(C#CCNc5ccc(S(C)(=O)=O)cc5OC)n6CC(F)(F)F)CC4)cc3OC)nc2N1C1CCCC1` [p53-01, PMV6-PEG4-BI2536]?
Answer: PLK1 substrates by western blot [1]: not in parental cells; PLK1 substrates by western blot [2]: phenocopied BI2536; normalized enrichment score (NES), Fischer p53 targets [3]: 1.33; IC50 ([4]; 96 h, MFE319, 4 day treatment): 1.27 µM; p5301_AUC_to_10uM ([4]; MFE319): 0.3547; mean_norm (normalized viability) ([4]; MFE319, Concentration 39.0625): 0.968; mean_norm (normalized viability) ([4]; MFE319, Concentration 78.125): 0.9234; mean_norm (normalized viability) ([4]; MFE319, Concentration 156.25): 0.9253; mean_norm (normalized viability) ([4]; MFE319, Concentration 312.5): 0.9948; mean_norm (normalized viability) ([4]; MFE319, Concentration 625): 0.9099; mean_norm (normalized viability) ([4]; MFE319, Concentration 1250): 0.6095; mean_norm (normalized viability) ([4]; MFE319, Concentration 2500): 0.3193; mean_norm (normalized viability) ([4]; MFE319, Concentration 5000): 0.2865; mean_norm (normalized viability) ([4]; MFE319, Concentration 10000): 0.2268; relative viability, replicates (sheet 4E) ([4]; log Concentration (nM) 0.68867): 1.049 and 0.9314 and 0.9072 and 0.917; relative viability, replicates (sheet 4E) ([4]; log Concentration (nM) 0.9897): 0.9806 and 0.996 and 0.993 and 0.8521; relative viability, replicates (sheet 4E) ([4]; log Concentration (nM) 1.29073): 0.9742 and 1.022 and 0.9775 and 0.9343; relative viability, replicates (sheet 4E) ([4]; log Concentration (nM) 1.59176): 1.009 and 1.026 and 0.9509 and 0.8871; relative viability, replicates (sheet 4E) ([4]; log Concentration (nM) 1.89279): 0.9459 and 0.9044 and 0.9452 and 0.8983; relative viability, replicates (sheet 4E) ([4]; log Concentration (nM) 2.19382): 0.8852 and 0.9848 and 0.9106 and 0.9206; relative viability, replicates (sheet 4E) ([4]; log Concentration (nM) 2.49485): 1.036 and 1.016 and 1.021 and 0.9075; relative viability, replicates (sheet 4E) ([4]; log Concentration (nM) 2.79588): 0.9347 and 0.9684 and 0.8932 and 0.8433; relative viability, replicates (sheet 4E) ([4]; log Concentration (nM) 3.09691): 0.6355 and 0.6443 and 0.6092 and 0.549; relative viability, replicates (sheet 4E) ([4]; log Concentration (nM) 3.39794): 0.3339 and 0.3826 and 0.2998 and 0.2608; relative viability, replicates (sheet 4E) ([4]; log Concentration (nM) 3.69897): 0.3202 and 0.3151 and 0.2607 and 0.2498; viability, replicates (sheet 4G) ([4]; p53-01 Concentration (µM) 0.0390625): 87.9896 and 96.6442 and 88.8312; viability, replicates (sheet 4G) ([4]; p53-01 Concentration (µM) 0.078125): 105.101 and 108.114 and 111.169; viability, replicates (sheet 4G) ([4]; p53-01 Concentration (µM) 0.15625): 94.6597 and 96.7065 and 100.094 and 89.7143; viability, replicates (sheet 4G) ([4]; p53-01 Concentration (µM) 0.3125): 90.6182 and 88.5922 and 96.6649 and 91.0338; viability, replicates (sheet 4G) ([4]; p53-01 Concentration (µM) 0.625): 77.5481 and 91.8338 and 80.5818; viability, replicates (sheet 4G) ([4]; p53-01 Concentration (µM) 1.25): 68.0623 and 80.2078 and 68.1143; viability, replicates (sheet 4G) ([4]; p53-01 Concentration (µM) 2.5): 46.5039 and 41.4649 and 46.0156; viability, replicates (sheet 4G) ([4]; p53-01 Concentration (µM) 5): 29.174 and 32.0623 and 26.6805; viability, replicates (sheet 4G) ([4]; p53-01 Concentration (µM) 10): 23.1584 and 24.4468 and 23.2416; rescue of viability decline by PMV6 ([4]; p53-01 with PMV6 2.5 μM, CTG 4 days): partially compete the decline in cell viability; p5301_AUC_to_10uM [5]: 0.5585; mean_norm (normalized viability) ([5]; Concentration 39.0625, 4 day): 1.014; mean_norm (normalized viability) ([5]; Concentration 78.125, 4 day): 0.9684; mean_norm (normalized viability) ([5]; Concentration 156.25, 4 day): 0.9955; mean_norm (normalized viability) ([5]; Concentration 312.5, 4 day): 1.001; mean_norm (normalized viability) ([5]; Concentration 625, 4 day): 0.97; IC50 [5, 13]: 2.81 µM; IC50 ([6]; Homo sapiens, NUGC-3, 96 h, 4 day treatment): 1.71 µM; p5301_AUC_to_10uM [6]: 0.5108; IC50 ([7]; Homo sapiens, 96 h, LNCaP, 4 day treatment): 14.1 µM; mean_norm (normalized viability) ([7]; Concentration 5000): 0.7565; mean_norm (normalized viability) ([7]; Concentration 10000): 0.7384; mean_norm (normalized viability) ([7]; Concentration 20000): 0.4932; p5301_AUC_to_10uM ([7]; LNCaP): 0.8069; p5301_AUC_to_10uM [8]: 1; IC50 ([8]; Homo sapiens, Huh-7, 96 h, 4 day treatment): > 20 µM; p5301_AUC_to_10uM [9]: 0.9503; mean_norm (normalized viability) ([9]; Concentration 39.0625, 4 day): 0.9684; mean_norm (normalized viability) ([9]; Concentration 78.125, 4 day): 0.9673; mean_norm (normalized viability) ([9]; Concentration 156.25, 4 day): 0.8732; mean_norm (normalized viability) ([9]; Concentration 312.5, 4 day): 0.9657; mean_norm (normalized viability) ([9]; Concentration 625, 4 day): 0.8895; mean_norm (normalized viability) ([9]; Concentration 1250, 4 day): 0.9491; mean_norm (normalized viability) ([9]; Concentration 2500, 4 day): 0.8943; mean_norm (normalized viability) ([9]; Concentration 5000, 4 day): 1.008; mean_norm (normalized viability) ([9]; Concentration 10000, 4 day): 0.9189; mean_norm (normalized viability) ([9]; Concentration 20000, 4 day): 0.9567; IC50 [9, 13]: > 20 µM; expansion of mCherry^− fraction [10]: 6.9 fold; protein localization [11]: PLK1 nuclear enrichment and colocalization with p53-Y220C

Question: Which IC50 [12] does the source give for `CC[C@@H]1C(=O)N(C)c2cnc(Nc3ccc(C(=O)NC4CCN(C)CC4)cc3OC)nc2N1C1CCCC1` [BI2536] here?
Answer: 0.0118 µM
